The results in this text go back to US8314150B2, “Kinase protein binding inhibitors” (priority 2008, dated 2012).

In one experiment the target is T1, c-Src (Homo sapiens, UniProt P12931).
T1 construct: purchased Millipore KinaseProfiler Service (Upstate Biotechnology, Inc)
The experiment in a line: KinaseProfiler screening. The format is biochemical. Conditions: 1 μM, 10 μM ATP. Here is the method: (§1) Cell Viability Assay—The Cells were treated with peptides for 24 hours at different peptide concentrations. The 3-(4,5-dimethylthiazol-2-yl)-5-(3-carboxymethoxyphenyl)-2-(4-sulfophenyl)-2H-tetrazolium compound from Promega Viability kit (Madison, Ill.) was added, and the cells were incubated at 37° C. for 1-2 hours. The optical density on 96-plate was analyzed with a microplate reader at 490 nm to determine cell viability. In addition, cells were stained with trypan blue after 24 hours of treatment with Y15 and the percent of cells that stained positive were determined with a hemacytometer. Cell adhesion assay—The poly-L-Lysine or Collagen (5 μg/ml) coated 96-well plates were blocked with the blocking buffer (medium with 0.5% BSA) for 1 hour at 37 C. The cells were pre-treated with drugs for 3 hours and plated for adhesion at 4×10^5 cells. Cells were incubated at 37 C for 1 hour, fixed in 3.7% formaldehyde, washed in 0.1% BSA in PBS and stained with crystal violet (5 mg/ml in 2% ethanol) for 10 minutes. Then 2% SDS was added to the dried plated and OD at 590 nm was measured for detecting cell adhesion. Western Blotting—Cells or homogenized tumor samples were washed twice with cold 1×PBS and lysed on ice for 30 minutes in a buffer containing: 50 mM Tris-HCl (pH 7.5), 150 mM NaCl, 1% Triton-X, 0.5% NaDOC, 0.1% SDS, 5 mM EDTA, 50 mM NaF, 1 mM NaVO3, 10% glycerol and protease inhibitors: 10 μg/ml leupeptin, 10 μg/ml PMSF and 1 μg/ml aprotinin. The lysates were cleared by centrifugation at 10,000 rpm for 30 minutes at 4° C. Protein concentrations were determined using a Bio-Rad Kit. The boiled samples were loaded on Ready SDS-10% PAGE gels (Bio Rad, Inc) and used for Western blot analysis with the protein-specific antibody. Immunoblots were developed with chemiluminescence Renaissance reagent (NEN Life Science Products, Inc). Immunoprecipitation. Immunoprecipitation was performed according to the standard protocol. In brief, the pre-cleared lysates with equal amount of protein were incubated with 1 μg of primary antibody and 30 μl A/G agarose beads overnight at 4° C. The precipitates were washed with lysis buffer three times and re-suspended in 2× Laemmli buffer. The boiled samples were used for Western blotting, as described above. Detachment Assay—Cells were plated with and without inhibitors for 24 hours, and detached and attached cells were counted in a hemocytometer. We calculated the percent of detachment by dividing the number of detached cells by the total number of cells. The percent of detached cells was calculated in three independent experiments. Apoptosis Assay. Detached cells were collected and fixed in 3.7% formaldehyde in 1×PBS solution for the apoptosis assay. Detection of apoptosis was done with Hoechst 33342 staining. The percent of apoptotic cells was calculated as a ratio of apoptotic detached cells divided by the total number of cells in three independent experiments in several fields with the fluorescent microscope. For each experiment 300 cells per treatment were counted. In vitro Kinase Assay—10 μCi of [γ-^32P]-ATP in a kinase buffer (20 mM HEPES, pH 7.4, 5 mM MgCl2, 5 mM MnCl2, 0.1 mM Na3VO4 with 0.1 μg of purified FAK protein were incubated in a kinase buffer with 10 μCi of [γ-^32P]-ATP. The kinase reaction was performed for 5 minutes at room temperature and stopped by addition of 2× Laemmli buffer. Proteins were separated on a Ready SDS-10% PAGE gel, and the phosphorylated enolase was visualized by autoradiography. KinaseProfiler screening—Kinase specificity screening was performed with KinaseProfiler™ Service (Millipore) available on http://www.millipore.com/drugdiscovery/dd3/KinaseProfiler. The screening was performed with 1 μM Y15, 10 μM ATP and kinase substrates on 9 recombinant kinases according to Millipore protocol. Tumor Growth in Nude Mice—Female nude mice, 6 weeks old, were purchased from Harlan Laboratory. […]

In a further experiment the target is T2, c-RAF (Homo sapiens, UniProt P04049).
T2 construct: purchased Millipore KinaseProfiler Service (Upstate Biotechnology, Inc)
The experiment in a line: KinaseProfiler screening. It is filed as biochemical. As to conditions: 1 μM, 10 μM ATP. As for the experimental part: as §1

Another experiment deals with T3, Pyk2 (Homo sapiens, UniProt Q14289).
T3 construct: purchased Millipore KinaseProfiler Service (Upstate Biotechnology, Inc)
Kind of experiment: KinaseProfiler screening. The format is biochemical. Conditions: 1 μM, 10 μM ATP. As for the experimental part:
as §1

The target of another experiment is T4, PDGFR-α (Homo sapiens, UniProt P16234).
T4 construct: purchased Millipore KinaseProfiler Service (Upstate Biotechnology, Inc)
Kind of experiment: KinaseProfiler screening. The format is biochemical. Conditions: 1 μM, 10 μM ATP. Here is the method:
as §1

Another experiment has as its target T5, EGFR (Homo sapiens, UniProt P00533).
T5 construct: purchased Millipore KinaseProfiler Service (Upstate Biotechnology, Inc)
Kind of experiment: KinaseProfiler screening. The format is biochemical. Conditions: 1 μM, 10 μM ATP. Here is the method:
as §1

The next experiment has as its target T6, IGF-1 (Homo sapiens, UniProt P08069).
T6 construct: purchased Millipore KinaseProfiler Service (Upstate Biotechnology, Inc)
The experiment in a line: KinaseProfiler screening. As to conditions: 1 μM, 10 μM ATP. The format is biochemical. Here is the method:
as §1

For the next experiment, the target named is T7, PI3K (p110δ/p85α) (Homo sapiens, UniProt O00329).
T7 construct: purchased Millipore KinaseProfiler Service (Upstate Biotechnology, Inc)
The experiment in a line: KinaseProfiler screening. It is filed as biochemical. As to conditions: 1 μM, 10 μM ATP. Here is the method: as §1

Another experiment has as its target T8, Met (Homo sapiens, UniProt P08581).
T8 construct: purchased Millipore KinaseProfiler Service (Upstate Biotechnology, Inc)
The experiment in a line: KinaseProfiler screening. It is filed as biochemical. As to conditions: 1 μM, 10 μM ATP. Here is the method:
as §1

For another experiment, the target named is T9, VEGFR-3 (Homo sapiens, UniProt P35916).
T9 construct: purchased Millipore KinaseProfiler Service (Upstate Biotechnology, Inc)
Kind of experiment: KinaseProfiler screening. It is filed as biochemical. Conditions: 1 μM, 10 μM ATP. Here is the method:
as §1

Another experiment deals with Miapaca-2 cells. The experiment in a line: Detachment assay, Miapaca-2. It is filed as cell-based, human. As for the experimental part: Cell Viability Assay—The Cells were treated with peptides for 24 hours at different peptide concentrations. The 3-(4,5-dimethylthiazol-2-yl)-5-(3-carboxymethoxyphenyl)-2-(4-sulfophenyl)-2H-tetrazolium compound from Promega Viability kit (Madison, Ill.) was added, and the cells were incubated at 37° C. for 1-2 hours. The optical density on 96-plate was analyzed with a microplate reader at 490 nm to determine cell viability. In addition, cells were stained with trypan blue after 24 hours of treatment with Y15 and the percent of cells that stained positive were determined with a hemacytometer. […] Then 2% SDS was added to the dried plated and OD at 590 nm was measured for detecting cell adhesion. […] Protein concentrations were determined using a Bio-Rad Kit. The boiled samples were loaded on Ready SDS-10% PAGE gels (Bio Rad, Inc) and used for Western blot analysis with the protein-specific antibody. […] Detachment Assay—Cells were plated with and without inhibitors for 24 hours, and detached and attached cells were counted in a hemocytometer. We calculated the percent of detachment by dividing the number of detached cells by the total number of cells. The percent of detached cells was calculated in three independent experiments. […] For each experiment 300 cells per treatment were counted. […]

T5 sequence (P00533 25-1210): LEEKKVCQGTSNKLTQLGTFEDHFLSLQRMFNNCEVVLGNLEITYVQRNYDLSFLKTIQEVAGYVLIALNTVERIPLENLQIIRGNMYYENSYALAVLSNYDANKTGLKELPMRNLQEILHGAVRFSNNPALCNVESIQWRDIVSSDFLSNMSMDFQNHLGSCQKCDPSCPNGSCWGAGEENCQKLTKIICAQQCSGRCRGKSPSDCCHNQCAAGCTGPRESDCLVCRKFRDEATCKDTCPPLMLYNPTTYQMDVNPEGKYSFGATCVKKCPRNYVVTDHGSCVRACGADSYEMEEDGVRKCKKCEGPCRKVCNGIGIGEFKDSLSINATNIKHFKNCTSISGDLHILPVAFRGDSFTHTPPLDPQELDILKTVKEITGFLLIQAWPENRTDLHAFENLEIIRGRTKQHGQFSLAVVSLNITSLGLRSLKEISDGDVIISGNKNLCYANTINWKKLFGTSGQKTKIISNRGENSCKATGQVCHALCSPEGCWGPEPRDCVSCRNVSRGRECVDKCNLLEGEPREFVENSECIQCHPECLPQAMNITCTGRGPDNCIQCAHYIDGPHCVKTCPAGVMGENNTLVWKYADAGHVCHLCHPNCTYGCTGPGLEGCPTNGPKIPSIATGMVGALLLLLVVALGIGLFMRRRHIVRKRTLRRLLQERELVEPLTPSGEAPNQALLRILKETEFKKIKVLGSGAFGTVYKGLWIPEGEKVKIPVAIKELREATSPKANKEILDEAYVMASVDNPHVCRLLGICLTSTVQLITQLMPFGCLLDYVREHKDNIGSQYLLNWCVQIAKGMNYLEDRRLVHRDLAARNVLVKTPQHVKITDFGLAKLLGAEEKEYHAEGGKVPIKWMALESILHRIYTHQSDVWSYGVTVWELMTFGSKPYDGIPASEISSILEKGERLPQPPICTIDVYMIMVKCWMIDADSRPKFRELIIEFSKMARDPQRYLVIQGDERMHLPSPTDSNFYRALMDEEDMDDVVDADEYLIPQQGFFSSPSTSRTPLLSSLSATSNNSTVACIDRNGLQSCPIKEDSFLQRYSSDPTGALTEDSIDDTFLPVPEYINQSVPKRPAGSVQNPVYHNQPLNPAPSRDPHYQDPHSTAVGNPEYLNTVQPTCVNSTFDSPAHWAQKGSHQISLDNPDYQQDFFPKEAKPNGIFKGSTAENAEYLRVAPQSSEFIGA
T4 sequence (P16234 24-1089): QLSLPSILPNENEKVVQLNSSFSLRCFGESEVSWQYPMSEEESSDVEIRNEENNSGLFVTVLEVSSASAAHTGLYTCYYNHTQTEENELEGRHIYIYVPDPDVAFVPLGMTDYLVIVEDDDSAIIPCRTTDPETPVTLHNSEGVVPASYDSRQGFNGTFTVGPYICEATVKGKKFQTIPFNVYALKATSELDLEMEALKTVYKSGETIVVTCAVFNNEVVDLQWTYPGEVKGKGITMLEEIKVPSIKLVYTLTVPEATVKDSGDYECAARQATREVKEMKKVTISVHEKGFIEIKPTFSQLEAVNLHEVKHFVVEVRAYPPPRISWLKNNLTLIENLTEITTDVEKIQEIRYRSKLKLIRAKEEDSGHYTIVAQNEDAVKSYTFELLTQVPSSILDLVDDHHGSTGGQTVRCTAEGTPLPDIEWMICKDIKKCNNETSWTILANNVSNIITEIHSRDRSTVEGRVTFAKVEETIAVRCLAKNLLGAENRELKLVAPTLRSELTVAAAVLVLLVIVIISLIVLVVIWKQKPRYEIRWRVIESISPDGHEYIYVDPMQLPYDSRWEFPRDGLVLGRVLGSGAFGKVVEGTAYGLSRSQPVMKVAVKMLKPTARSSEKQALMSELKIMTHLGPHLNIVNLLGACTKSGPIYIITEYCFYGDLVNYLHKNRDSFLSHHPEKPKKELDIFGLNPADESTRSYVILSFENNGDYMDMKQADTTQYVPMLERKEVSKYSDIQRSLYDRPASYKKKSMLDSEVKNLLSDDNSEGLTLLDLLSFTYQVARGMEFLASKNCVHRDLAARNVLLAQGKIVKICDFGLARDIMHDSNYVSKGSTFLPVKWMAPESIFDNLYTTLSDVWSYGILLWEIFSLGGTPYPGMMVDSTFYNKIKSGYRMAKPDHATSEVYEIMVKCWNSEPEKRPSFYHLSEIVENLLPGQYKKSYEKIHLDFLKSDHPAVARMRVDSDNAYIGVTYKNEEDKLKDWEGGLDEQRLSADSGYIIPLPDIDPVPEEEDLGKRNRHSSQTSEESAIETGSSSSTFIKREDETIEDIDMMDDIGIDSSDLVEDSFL
T2 sequence (P04049 whole entry): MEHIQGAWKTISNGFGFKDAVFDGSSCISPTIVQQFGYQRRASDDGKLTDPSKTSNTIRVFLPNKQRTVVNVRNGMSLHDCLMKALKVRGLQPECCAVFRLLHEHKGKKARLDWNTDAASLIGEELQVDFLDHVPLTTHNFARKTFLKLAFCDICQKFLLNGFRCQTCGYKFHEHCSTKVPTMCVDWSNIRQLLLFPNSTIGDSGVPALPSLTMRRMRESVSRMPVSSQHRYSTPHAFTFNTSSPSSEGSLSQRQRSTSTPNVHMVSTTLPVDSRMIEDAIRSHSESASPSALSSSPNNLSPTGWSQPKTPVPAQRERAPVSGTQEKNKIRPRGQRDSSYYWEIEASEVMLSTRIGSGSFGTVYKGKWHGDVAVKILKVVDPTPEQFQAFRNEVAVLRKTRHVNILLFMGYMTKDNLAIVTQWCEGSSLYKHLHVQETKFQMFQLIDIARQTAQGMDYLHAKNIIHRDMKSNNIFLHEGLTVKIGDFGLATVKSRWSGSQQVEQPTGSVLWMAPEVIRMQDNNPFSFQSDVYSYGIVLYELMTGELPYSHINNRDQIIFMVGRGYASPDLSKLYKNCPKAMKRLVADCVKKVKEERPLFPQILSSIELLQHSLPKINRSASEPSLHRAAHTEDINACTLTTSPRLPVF
T3 sequence (Q14289 whole entry): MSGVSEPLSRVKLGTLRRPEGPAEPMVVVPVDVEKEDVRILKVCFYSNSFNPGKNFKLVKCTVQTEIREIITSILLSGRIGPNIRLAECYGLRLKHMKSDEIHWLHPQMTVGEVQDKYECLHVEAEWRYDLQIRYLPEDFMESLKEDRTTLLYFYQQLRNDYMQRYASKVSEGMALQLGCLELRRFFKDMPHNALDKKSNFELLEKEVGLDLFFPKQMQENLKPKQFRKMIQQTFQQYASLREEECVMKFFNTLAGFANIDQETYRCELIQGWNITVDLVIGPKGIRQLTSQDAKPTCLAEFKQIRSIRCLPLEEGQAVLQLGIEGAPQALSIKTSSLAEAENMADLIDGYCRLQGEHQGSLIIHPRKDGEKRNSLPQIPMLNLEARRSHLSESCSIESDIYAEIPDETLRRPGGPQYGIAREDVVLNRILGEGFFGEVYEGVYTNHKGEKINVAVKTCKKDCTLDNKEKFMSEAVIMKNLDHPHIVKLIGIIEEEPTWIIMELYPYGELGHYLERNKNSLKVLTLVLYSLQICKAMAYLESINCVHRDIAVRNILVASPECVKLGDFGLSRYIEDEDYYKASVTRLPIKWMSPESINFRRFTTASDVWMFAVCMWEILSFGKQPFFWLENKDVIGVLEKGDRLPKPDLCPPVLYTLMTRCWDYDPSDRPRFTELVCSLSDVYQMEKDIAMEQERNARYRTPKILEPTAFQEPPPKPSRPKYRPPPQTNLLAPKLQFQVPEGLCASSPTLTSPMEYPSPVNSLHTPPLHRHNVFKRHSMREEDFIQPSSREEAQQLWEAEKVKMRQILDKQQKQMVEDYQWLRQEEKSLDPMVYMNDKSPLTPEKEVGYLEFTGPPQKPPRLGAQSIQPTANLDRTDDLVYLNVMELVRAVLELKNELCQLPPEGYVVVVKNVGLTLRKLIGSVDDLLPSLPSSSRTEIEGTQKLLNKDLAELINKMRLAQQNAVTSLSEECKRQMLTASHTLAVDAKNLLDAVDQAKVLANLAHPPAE
T1 sequence (P12931 whole entry): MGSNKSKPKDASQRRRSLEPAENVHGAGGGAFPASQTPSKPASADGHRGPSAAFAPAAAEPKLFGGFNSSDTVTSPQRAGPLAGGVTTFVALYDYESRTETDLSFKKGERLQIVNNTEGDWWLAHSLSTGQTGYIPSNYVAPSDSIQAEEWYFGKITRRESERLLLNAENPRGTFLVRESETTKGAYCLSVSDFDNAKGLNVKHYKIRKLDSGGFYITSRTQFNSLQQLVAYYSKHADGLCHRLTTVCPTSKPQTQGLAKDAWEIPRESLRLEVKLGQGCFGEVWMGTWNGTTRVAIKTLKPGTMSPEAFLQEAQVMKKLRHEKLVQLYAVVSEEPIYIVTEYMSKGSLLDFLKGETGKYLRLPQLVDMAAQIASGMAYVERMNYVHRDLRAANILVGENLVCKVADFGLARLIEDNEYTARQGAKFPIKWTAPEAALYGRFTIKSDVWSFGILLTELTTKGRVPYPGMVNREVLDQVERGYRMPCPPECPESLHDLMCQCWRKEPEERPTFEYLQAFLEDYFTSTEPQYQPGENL

As to `Cl.Cl.Cl.Cl.Nc1cc(N)c(N)cc1N` [Y15, 1,2,4,5-benzenetetraamine tetrahydrochloride], the kinase activity entry on c-Src, at c-RAF, on Pyk2, on PDGFR-α, on EGFR and on IGF-1 was “did not significantly decrease kinase activity” each time. Moreover, the kinase activity result at PI3K (p110δ/p85α), on Met and on VEGFR-3 was “did not significantly decrease kinase activity” each time. Further, the “dose from which detachment was significant” value in the experiment on Miapaca-2 cells came to 3 µM.
